Holding throughout (format): functional, cell-based
Experiment [1] concerns the target T1, Kappa-type opioid receptor (Homo sapiens, UniProt P41145). As to the kind of experiment: Agonist activity at human kappa opioid receptor expressed in CHO-K1 cells assessed as inhibition of forskolin-stimulated cAMP accumulation by HitHunter assay based luminescence analysis relative to control. (Changes in cAMP serve as a functional read-out for many G protein-coupled receptors.)

The target of experiment [2] is T2, Mu-type opioid receptor (Homo sapiens, UniProt P35372). As to the kind of experiment: Agonist activity at human mu opioid receptor expressed in CHO-K1 cells assessed as inhibition of forskolin-stimulated cAMP accumulation by HitHunter assay based luminescence analysis relative to control.
T2 sequence (P35372 whole entry): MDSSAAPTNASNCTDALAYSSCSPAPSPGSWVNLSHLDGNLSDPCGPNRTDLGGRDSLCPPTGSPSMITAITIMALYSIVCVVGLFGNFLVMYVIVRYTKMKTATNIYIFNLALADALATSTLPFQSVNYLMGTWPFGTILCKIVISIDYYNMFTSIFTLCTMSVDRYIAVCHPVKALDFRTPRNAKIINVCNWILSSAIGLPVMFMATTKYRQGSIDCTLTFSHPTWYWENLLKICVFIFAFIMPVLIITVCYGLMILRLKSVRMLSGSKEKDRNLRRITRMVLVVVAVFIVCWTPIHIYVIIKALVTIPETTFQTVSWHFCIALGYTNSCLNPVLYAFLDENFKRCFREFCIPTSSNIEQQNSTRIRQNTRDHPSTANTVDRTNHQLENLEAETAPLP
Experiment [3] deals with Delta-type opioid receptor (Homo sapiens) (UniProt P41143). Nature of the experiment: Agonist activity at human delta opioid receptor expressed in CHO-K1 cells assessed as inhibition of forskolin-stimulated cAMP accumulation at <1 uM by HitHunter assay based luminescence analysis.
Delta-type opioid receptor (Homo sapiens), sequence (P41143 whole entry): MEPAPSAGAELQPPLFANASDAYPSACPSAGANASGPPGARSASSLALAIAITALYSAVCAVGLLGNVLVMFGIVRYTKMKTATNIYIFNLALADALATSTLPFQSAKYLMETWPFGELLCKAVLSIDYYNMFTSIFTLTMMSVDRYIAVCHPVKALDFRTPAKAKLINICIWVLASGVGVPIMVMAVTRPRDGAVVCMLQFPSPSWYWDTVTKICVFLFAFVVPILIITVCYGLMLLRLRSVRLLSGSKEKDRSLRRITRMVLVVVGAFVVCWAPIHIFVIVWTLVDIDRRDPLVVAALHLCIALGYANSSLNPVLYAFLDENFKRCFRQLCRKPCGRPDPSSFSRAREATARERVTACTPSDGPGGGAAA
In experiment [4] the target is T1, Kappa-type opioid receptor. Nature of the experiment: Agonist activity at human kappa opioid receptor expressed in CHO-K1 cells assessed as inhibition of forskolin-stimulated cAMP accumulation by HitHunter assay based luminescence analysis.
Experiment [5] has as its target T2, Mu-type opioid receptor. Nature of the experiment: Agonist activity at human mu opioid receptor expressed in CHO-K1 cells assessed as inhibition of forskolin-stimulated cAMP accumulation at 10 uM by HitHunter assay based luminescence analysis.
Experiment [6] has as its target T1, Kappa-type opioid receptor. Nature of the experiment: Agonist activity at human kappa opioid receptor expressed in CHO-K1 cells assessed as inhibition of forskolin-stimulated cAMP accumulation at 10 uM by HitHunter assay based luminescence analysis.

The term Emax denotes the greatest response seen or fitted, relative to the assay's reference. A word on the EC50: it is the concentration giving half of the maximal effect.

The source made the active and inactive calls. The calls are words filed in the database; no cut-off is given here.

T1 sequence (P41145 whole entry): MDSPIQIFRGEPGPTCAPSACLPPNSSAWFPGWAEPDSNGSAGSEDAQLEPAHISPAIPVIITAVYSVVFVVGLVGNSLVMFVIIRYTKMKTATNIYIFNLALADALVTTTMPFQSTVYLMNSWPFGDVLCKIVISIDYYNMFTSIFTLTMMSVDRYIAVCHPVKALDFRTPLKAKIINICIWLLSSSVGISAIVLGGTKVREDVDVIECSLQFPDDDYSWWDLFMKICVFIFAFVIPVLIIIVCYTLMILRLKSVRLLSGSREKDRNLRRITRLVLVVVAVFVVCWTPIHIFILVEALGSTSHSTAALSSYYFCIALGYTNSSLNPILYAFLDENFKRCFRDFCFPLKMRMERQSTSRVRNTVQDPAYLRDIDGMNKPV

Regarding `C/C=C1/CN2CC[C@]34C(=C(C(=O)OC)[C@H]1C[C@H]23)Nc1ccc(-c2ccsc2)cc14`, the Emax in experiment [1] (filed as agonist) was found to be 104%; in experiment [2] (filed as agonist) it was 107%. In addition, the outcome in experiment [3] was inactive.
In the case of `C/C=C1/CN2CC[C@]34C(=C(C(=O)OC)[C@H]1C[C@H]23)Nc1ccc(C#N)cc14`, in experiment [4], the EC50 came to 81 nM. The Emax in experiment [1] (filed as agonist) was 102%; in experiment [2], < 10%. Also, the result in experiment [5] and in experiment [3] was inactive.
In the case of `C[C@@H](NC(=O)[C@@H](N)Cc1ccc(O)cc1)C(=O)NCC(=O)N(C)[C@@H](Cc1ccccc1)C(=O)NCCO`, the outcome in experiment [6] was inactive.
With `COC(=O)C1=C2Nc3ccccc3[C@@]23CCN2C[C@@](O)(C(C)=O)[C@@H]1C[C@H]23`, the result in experiment [6] and in experiment [5] was inactive. The Emax in experiment [1] and in experiment [2] was < 10% throughout.
Turning to `C/C=C1/C[N+]2(CCC)CC[C@]34C(=C(C(=O)OC)[C@H]1C[C@@H]32)Nc1ccccc14` (some centres not stated), the outcome in experiment [6] and in experiment [5] was inactive. Moreover, the Emax in experiment [1] and in experiment [2] was < 10% throughout.
With `C=CC[N+]12CC[C@]34C(=C(C(=O)OC)[C@@H](C[C@@H]31)/C(=C\C)C2)Nc1ccccc14` (some centres not stated), the outcome in experiment [6] and in experiment [5] was inactive. The Emax in experiment [1] and in experiment [2] was < 10% each time.
Consider `C/C=C1/C[N+]2(C)CC[C@]34C(=C(C(=O)OC)[C@H]1C[C@@H]32)Nc1ccccc14` (some centres not stated), for which the outcome in experiment [6] and in experiment [5] was inactive. In addition, the Emax in experiment [1] and in experiment [2] was < 10% in each case.
Turning to `CC[C@@H]1CN2CC[C@]34C(=C(C(=O)OC)[C@H]1C[C@H]23)Nc1ccccc14`, the EC50 in experiment [4] amounted to 1600 nM. Further, the Emax in experiment [1] (filed as agonist) is 99%; in experiment [2] it was < 10%. Also, the outcome in experiment [5] was inactive.
Consider `COC(=O)C1=C2Nc3ccccc3[C@@]23CCN2C[C@@](O)([C@@H](C)O)[C@@H]1C[C@H]23`, for which the result in experiment [6] and in experiment [5] was inactive. In addition, the Emax in experiment [1] and in experiment [2] was < 10% each time.
Consider `C/C=C1/C[N+]2(C)CC[C@]34C(=C(C(=O)OC)[C@H]1C[C@@H]32)Nc1ccc(Br)cc14` (some centres not stated), for which the EC50 in experiment [4] is 940 nM. Further, the Emax in experiment [1] (filed as agonist) was 102%; in experiment [2] it was < 10%. Moreover, the outcome in experiment [5] was inactive.
In the same order, the values of `C=CC[N+]12CC[C@]34C(=C(C(=O)OC)[C@@H](C[C@@H]31)/C(=C\C)C2)Nc1ccc(Br)cc14` (some centres not stated) are 650 nM, 100%, < 10% and “inactive”.
With `CC[C@@H]1CN2CC[C@]34c5ccccc5N[C@@H]3[C@H](C(=O)OC)[C@H]1C[C@H]24`, the result in experiment [6] and in experiment [5] was inactive. The Emax in experiment [1] and in experiment [2] was < 10% in each case.
Take `C/C=C1/C[N+]2(CC3CC3)CC[C@]34C(=C(C(=O)OC)[C@H]1C[C@@H]32)Nc1ccc(Br)cc14` (some centres not stated): the figures for the Emax in experiment [1] (filed as agonist) and in experiment [2] were 94% and < 10%, respectively. For the same molecule, the result in experiment [5] was inactive.
Turning to `C/C=C1/CN2CC[C@]34c5cc(Br)ccc5NC3C(C(=O)OC)[C@H]1C[C@H]24` (some centres not stated), in experiment [1] (filed as agonist), the Emax was 100%.
`C/C=C1/CN2CC[C@]34c5cc(I)ccc5NC3C(C(=O)OC)[C@H]1C[C@H]24` (some centres not stated): in experiment [4], the EC50 came to 24 nM. Besides, the Emax in experiment [1] (filed as agonist) is 100%; in experiment [2], < 10%. Moreover, the result in experiment [5] and in experiment [3] was inactive.
Consider `C/C=C1/CN2CC[C@]34C(=C(C(=O)OC)[C@H]1C[C@H]23)Nc1ccc(-c2ccccc2)cc14`, for which the Emax in experiment [1] (filed as agonist) was 101%; in experiment [2] (filed as agonist), 106%. In experiment [3], the result was inactive.
As for `C/C=C1/C[N+]2(Cc3ccccc3)CC[C@]34C(=C(C(=O)OC)[C@H]1C[C@@H]32)Nc1ccccc14` (some centres not stated), in experiment [6], the result was inactive. Further, the maximum response (Emax) in experiment [1] is < 10%; in experiment [2] (filed as agonist), 112%.
On to `C/C=C1/C[N+]2(CC3CC3)CC[C@]34C(=C(C(=O)OC)[C@H]1C[C@@H]32)Nc1ccccc14` (some centres not stated), for which the EC50 in experiment [4] was determined as 4700 nM. In addition, the Emax in experiment [1] (filed as agonist) is 113%; in experiment [2], < 10%. The outcome in experiment [5] was inactive.
Consider `C/C=C1/CN2CC[C@]34c5ccccc5N[C@@H]3[C@H](C(=O)OC)[C@H]1C[C@H]24`, for which the outcome in experiment [6] and in experiment [5] was inactive. The Emax in experiment [1] and in experiment [2] was < 10% in each case.
For `COC(=O)C1=C2Nc3ccc(Br)cc3[C@@]23CCN2C[C@@](O)([C@@H](C)O)[C@@H]1C[C@H]23`, the outcome in experiment [6] and in experiment [5] was inactive. The Emax in experiment [1] and in experiment [2] was < 10% each time.

The values are drawn from ChEMBL document CHEMBL6074668 (J Med Chem, 2024).
